The values that follow are results of earlier work, collected in patent US9205054B2 (LOSAN PHARMA GMBH, priority 2005, dated 2015).

For data set [1] the following is noted: 0.1 molar hydrochloric acid solution, after one hour.

Molecules are shown by their SMILES. Like-named read-outs stand apart in the source and are kept apart here.

Take `CC(C)Cc1ccc(C(C)C(=O)O)cc1` (racemic) [Ibuprofen, 2-(4-isobutylphenyl)propionic acid]: the solubility result runs as follows: (pH 1-5) “under 0.1 g/l”; (pH 7.2) “about 20 g/l”. Moreover, the dissolved ibuprofen in data set [1] is 10%.
